# Test results: article PMC7893776, “Selecting an anti-malarial clinical candidate from two potent dihydroisoquinolones” (Malaria Journal, 2021)
# Key:
# Thermodynamic solubility = format: physicochemical; conditions: for solubility thermodynamic: 37 °C, thermodynamic from solid
# Experimental: Solubility was also evaluated in fasted (FaSSIF-V2) or fed (FeSSIF-V2) state simulated intestinal fluids. These media contain lipolysis breakdown products (glycerol monooleate and oleic acid) in addition to bile salt (sodium taurocholate) and phospholipid (lecithin) and were buffered to simulate approximate pH conditions found in the fasted (pH 6.5) or fed (pH 5.8) state small intestine. Control media (blank FaSSIF-V2 and FeSSIF-V2 buffers) lacking bile salt, phospholipid and lipolysis products were also investigated.
# Compounds were weighed into individual screw cap polypropylene tubes and aqueous buffer, 0.1 N HCl, or simulated intestinal fluid added to provide a compound concentration of between 700 and 5000 μg/mL. Samples were vortexed, placed in a 37 °C incubator, and mixed on an orbital shaker (IKA® VXR basic Vibrax® orbital shaker) set at 600 rpm. Samples were regularly examined to ensure excess solid was present. Sampling was conducted after 1, 4, 6, and 24 h by centrifuging each sample at 10,000 rpm for 3 min, transferring a 200 µL aliquot into fresh Eppendorf tubes, and centrifuging again at 10,000 rpm for 3 min. Duplicate aliquots of the final supernatant were removed and diluted to an appropriate analytical concentration in 50% aqueous methanol prior to analysis by HPLC. HPLC analysis was conducted on a Waters 2695 HPLC system coupled to a Waters 2487 dual absorbance wavelength detector, analyzing at 254 nm. A Phenomenex Luna C18(2) column (3 µm, 50 × 2.0 mm i.d.) was used for analysis, with the column temperature maintained at 40 °C. Concentrations were quantified by comparison to a calibration curve prepared over the concentration range in 50% aqueous methanol. The mobile phase consisted of water, methanol, and 1% aqueous formic acid. Separations were conducted using a flow rate of 0.4 mL/min and an injection volume of 5 µL. Processed samples were maintained in the autosampler at a temperature of 10 °C.
# [1] = LogP, Gemini Profiler titration; format: physicochemical
# Experimental: LogP was measured using a Gemini Profiler instrument (pION Inc., Billerica, MA). 1–2 mg of compound was dissolved in octanol (0.5 mL) in a test tube. The test tube was purged with argon and a magnetic stir bar was added. The solution was treated with aqueous KCl (2.5 mL, 0.15 M) and stirred for 10 min. The pH was adjusted to 2 by addition of aqueous HCl (0.5 M). The resulting solution was titrated by adding aqueous KOH (0.5 M) in small aliquots (controlled by the Gemini Profiler software), until the pH reached 12. The volume of each addition and the corresponding pH of the test solution were recorded. Data were processed using pS software. The data points were fitted to a Bjerrum plot to achieve the best GOF (goodness of fitness) and a logP value was obtained. All measurements were conducted in triplicate.
# rat plasma proteins = assay: Plasma protein binding (RED), rat; format: in vitro ADME; conditions: average of 20, 4, 0.8 µM
# Experimental: A Rapid Equilibrium Dialysis (RED) Plate (Thermo Scientific, catalog #, PI-90007) was used to determine the percentage of compound binding to plasma proteins. The positive control for this experiment was propranolol-HCl (10 mM in DMSO) and the internal standard was warfarin (2 µM in methanol). 10 mM stocks of compound in DMSO were diluted with DMSO acetonitrile (1:4, v:v) to three different intermediate concentrations: high (2 mM), medium (0.4 mM) and low (0.08 mM). A 10 mM stock of propranolol in DMSO was diluted to 0.4 mM concentration in DMSO:acetonitrile (1:4 v:v). In 16 Eppendorf tubes, the control (10 µL) or each of three compound dilutions (10 µL) were each added to separate aliquots of mouse, rat, dog, and human plasma (990 µL). In the RED plate, potassium phosphate buffer (500 µL, 0.1 M, pH 7.4, 37 °C) was placed in every white well and each plasma/compound mixture was added to each of 3 red wells. […] The compounds and internal standard were detected by selected ion recording (SIR). Using the peak area ratio of compound to warfarin from the SIR spectra, the percentage of free compound [1] and bound compound [2] were calculated using the following equations: (1) % free = (concentration buffer chamber/concentration plasma chamber)*100, and (2) % bound = 100 − % free.
compound,measurement,setting,value
N#Cc1cc(NC(=O)[C@H]2c3ccccc3C(=O)N(CC(F)(F)F)[C@@H]2c2cccnc2)ccc1F [(+)-SJ733],Solubility,"Thermodynamic solubility; 0.1 N HCl pH 1, 37°C, 1 h",6817 µM
same,Solubility,"Thermodynamic solubility; 0.1 N HCl pH 1, 37°C, 4 h",7321 µM
same,Solubility,"Thermodynamic solubility; 0.1 N HCl pH 1, 37°C, 6 h",7376 µM
same,Solubility,"Thermodynamic solubility; 0.1 N HCl pH 1, 37°C, 24 h",7891 µM
same,Solubility,"Thermodynamic solubility; FaSSIF blank pH 6.5, 37°C, 1 h",81 µM
same,Solubility,"Thermodynamic solubility; FaSSIF blank pH 6.5, 37°C, 4 h",92 µM
same,Solubility,"Thermodynamic solubility; FaSSIF blank pH 6.5, 37°C, 6 h",96 µM
same,Solubility,"Thermodynamic solubility; FaSSIF blank pH 6.5, 37°C, 24 h",100 µM
same,Solubility,"Thermodynamic solubility; FaSSIF-V2 pH 6.5, 37°C, 1 h",199 µM
same,Solubility,"Thermodynamic solubility; FaSSIF-V2 pH 6.5, 37°C, 4 h",216 µM
same,Solubility,"Thermodynamic solubility; FaSSIF-V2 pH 6.5, 37°C, 24 h",207 µM
same,Solubility,"Thermodynamic solubility; FeSSIF blank pH 5.8, 37°C, 1 h",83 µM
same,Solubility,"Thermodynamic solubility; FeSSIF blank pH 5.8, 37°C, 4 h",88 µM
same,Solubility,"Thermodynamic solubility; FeSSIF blank pH 5.8, 37°C, 6 h",100 µM
same,Solubility,"Thermodynamic solubility; FeSSIF blank pH 5.8, 37°C, 24 h",107 µM
same,Solubility,"Thermodynamic solubility; FeSSIF-V2 pH 5.8, 37°C, 1 h",237 µM
same,Solubility,"Thermodynamic solubility; FeSSIF-V2 pH 5.8, 37°C, 4 h",250 µM
same,Solubility,"Thermodynamic solubility; FeSSIF-V2 pH 5.8, 37°C, 24 h",248 µM
same,Solubility,"Thermodynamic solubility; Phosphate buffer pH 7.4, 37°C, 1 h",207 µM
same,Solubility,"Thermodynamic solubility; Phosphate buffer pH 7.4, 37°C, 4 h",250 µM
same,Solubility,"Thermodynamic solubility; Phosphate buffer pH 7.4, 37°C, 24 h",250 µM
N#Cc1cc(NC(=O)C2c3ccccc3C(=O)N(CC(F)(F)F)C2c2cn[nH]c2)ccc1F (racemic) [(r)-SJ311],LogP,[1],1.24 ± 0.28 (logP( +))
same,% bound,rat plasma proteins,91.0 ± 0.1%
N#Cc1cc(NC(=O)[C@H]2c3ccccc3C(=O)N(CC(F)(F)F)[C@@H]2c2cccnc2)ccc1F (racemic) [SJ733],solubility thermodynamic,"Thermodynamic solubility; 0.1 N HCl, pH 1, simulated gastric fluid, strongly acidic conditions",> 3000 µg/mL
same,solubility thermodynamic,"Thermodynamic solubility; aqueous buffer, pH 7.4, 6.5, and 5.8 aqueous buffers",81 to 237 µM
N#Cc1cc(NC(=O)C2c3ccccc3C(=O)N(CC(F)(F)F)C2c2cccnc2)ccc1F (racemic) [(r)-SJ733],LogP,[1],2.95 ± 0.03 (logP( +))
same,% bound,rat plasma proteins,90.0 ± 1.7%
